Consider 3 compounds from PubChem BioAssay (NCI).

Test systems include TK-10 renal; NCI-H522 lung; SK-MEL-5 melanoma; HOP-92 NSCLC; SR leukemia; SK-MEL-2 melanoma; PC-3 prostate; MALME-3M melanoma; SNB-19 CNS; SF-268 CNS.
Test in all cases: growth of human tumour cells (NCI), 48 h

Each structure is given as a SMILES string.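 The compound was tested at five concentrations on cells cultured in 96-well plates, with a 48-hour exposure period. GI50 = concentration required for 50% inhibition of growth. TGI: concentration producing complete growth inhibition.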 Bounds are passed on as bounds.

For the compound `CCN(Cc1ccc(F)cc1)c1ccc(CO)c(C)c1`, the GI50 is 0.884 µM in the experiment with TK-10 renal; 8.52 µM in the experiment with NCI-H522 lung; 10.2 µM in the experiment with SK-MEL-5 melanoma; 8.45 µM in the experiment on HOP-92 NSCLC; 20.3 µM in the experiment on SR leukemia; 7.58 µM in the experiment on SK-MEL-2 melanoma. In addition, the GI50 in the experiment on PC-3 prostate was 11.6 µM; in the experiment with MALME-3M melanoma, 5.58 µM; in the experiment with SNB-19 CNS, 31.4 µM; in the experiment on SF-268 CNS it was 24.9 µM. Also, the TGI in the experiment with TK-10 renal was 4.2 µM; in the experiment with NCI-H522 lung, 22 µM; in the experiment on SK-MEL-5 melanoma, 22.8 µM; with HOP-92 NSCLC, 27 µM; in the experiment on SR leukemia, 58.1 µM; in the experiment with SK-MEL-2 melanoma, 22.8 µM. In addition, the TGI is 32.3 µM with PC-3 prostate, 17.3 µM in the experiment on MALME-3M melanoma, over 100 µM with SNB-19 CNS and over 58.9 µM with SF-268 CNS.
With `CCOc1cc(Br)c(C(C)NC(=O)c2cccc(OC)c2)cc1OCC` (stereo not given), the GI50 in the experiment with TK-10 renal was 28.2 µM; in the experiment with NCI-H522 lung it was 6.83 µM; with SK-MEL-5 melanoma, 8.06 µM; in the experiment on HOP-92 NSCLC, 8.97 µM; in the experiment with SR leukemia, 3.26 µM; in the experiment with SK-MEL-2 melanoma it was 5.54 µM. Further, the GI50 with PC-3 prostate is 12.6 µM; with MALME-3M melanoma, 9.9 µM; in the experiment with SNB-19 CNS, 11.8 µM; with SF-268 CNS, 22.9 µM. Moreover, the TGI was over 100 µM in the experiment with TK-10 renal; 54.4 µM with NCI-H522 lung; 34.9 µM with SK-MEL-5 melanoma; over 83.5 µM in the experiment on HOP-92 NSCLC; over 100 µM in the experiment on SR leukemia; over 76.7 µM in the experiment with SK-MEL-2 melanoma. Also, the TGI is over 100 µM with PC-3 prostate, over 89.3 µM with MALME-3M melanoma, over 100 µM with SNB-19 CNS and over 100 µM in the experiment with SF-268 CNS.
For the compound `O=[N+]([O-])c1ccc(Oc2nc(Nc3ccc(O[C@H]4CO[C@H]5[C@@H]4OC[C@@H]5O)c(Cl)c3)ncc2F)c(Cl)c1`, the GI50 is 1.08 µM with TK-10 renal; 1.17 µM in the experiment on NCI-H522 lung; 1.29 µM in the experiment on SK-MEL-5 melanoma; 0.807 µM in the experiment with HOP-92 NSCLC; 0.548 µM with SR leukemia; 0.483 µM with SK-MEL-2 melanoma. Moreover, the GI50 with PC-3 prostate is 1.66 µM; in the experiment with MALME-3M melanoma, 1.07 µM; in the experiment with SNB-19 CNS, 2.89 µM; in the experiment with SF-268 CNS, 1.56 µM. In addition, the TGI in the experiment with TK-10 renal worked out at 4.07 µM; with NCI-H522 lung, 5.6 µM; in the experiment on SK-MEL-5 melanoma it was 2.59 µM; with HOP-92 NSCLC, 2.65 µM; with SR leukemia, 7.79 µM; in the experiment with SK-MEL-2 melanoma, 2.04 µM. For the same compound, the TGI in the experiment on PC-3 prostate is 7.04 µM; in the experiment with MALME-3M melanoma, 3.17 µM; in the experiment with SNB-19 CNS it was 9.81 µM; in the experiment with SF-268 CNS, 6.92 µM.
